A short description of the data set: XPS phosphorus over metal ratio on Titanium grade 4 cylinders. The note with it: 0.7 mM, Metal = Ti2p. In kind it is physicochemical.

Structures are written as SMILES. Marks after values point to notes of the source that are not given here.

Regarding `O=P(O)(O)C(CC(P(=O)(O)O)P(=O)(O)O)P(=O)(O)O` [1,1,3,3-propane tetraphosphonic acid], the Phosphorus/Metal is, setting by setting: (Phosphonic acid 5 min, sonicated 65° C.) 0.24^b; (Phosphonic acid 10 min, sonicated 65° C.) 0.28^b; (Phosphonic acid 30 min, sonicated 65° C.) 0.30^b; (Phosphonic acid 60 min, sonicated 65° C.) 0.28^b; (all steps sonicated at 40° C., 15 min) 0.22^b; (all steps sonicated at 50° C., 15 min) 0.26^b. Moreover, the Phosphorus/Metal reads like this: (all steps sonicated at 60° C., 15 min) 0.25^b; (all steps sonicated at 70° C., 15 min) 0.25^b; (all steps sonicated at 80° C., 15 min) 0.27^b; (all steps sonicated at 90° C., 15 min) 0.27^b; (pre-treatment Deconex 15PF-x 5 min, sonicated 65° C. 15 min) 0.36^b; (pre-treatment Deconex 15PF-x 15 min, sonicated 65° C. 15 min) 0.32^b. For the same compound, the Phosphorus/Metal (pre-treatment Deconex 15PF-x 30 min, sonicated 65° C. 15 min) was 0.32^b.

(Values after patent publication US11000627B2, “Treatment of implants with phosphonic acid compounds” (Nano Bridging Molecules SA, priority 2016, dated 2021).)
